Assay results published in PMC9655037, “Alternation of Organ-Specific Exposure in LPS-Induced Pneumonia Mice after the Inhalation of Tetrandrine Is Governed by Metabolizing Enzyme Suppression and Lysosomal Trapping” (International Journal of Molecular Sciences, 2022).

Assays:
MDR1 (P-gp) = MDR1 (P-gp) (Homo sapiens, UniProt P08183); experiment: Bidirectional transport in MDR1-transfected LLC-PK1 cells
Procedure: (§1) MDR1 expressing LLC-PK1 cells or MOCK LLC-PK1 cells were utilized to identify whether P-gp is involved in the efflux transport across the membrane barrier. Cells were cultured as described above. Cells were seeded at a density of 2 × 10^4 in Millicell® 24-well cell culture plates with a 6.5 mm insert (0.4 µm polycarbonate membrane) from Corning (Kennebunk, ME, USA) 7 days before the experiments. On the day of the experiment, transepithelial electrical resistance (TEER) was measured to assess monolayer integrity. After washing the cells twice with HBSS, transport experiments in either the apical-to-basolateral direction (A-B) or the basolateral-to-apical direction (B-A) were conducted. […] After incubating the plates at 37 °C for 2 h, samples from the receiving and donor wells (50 μL) were taken simultaneously. All the samples were stored at −40 °C for LC-MS/MS analysis.
(§2) In the bidirectional transport study in LLC-PK1 cells, the following equations were used to calculate Papp values and the MDR1 efflux ratio.

MDR1 = MDR1 (Homo sapiens, UniProt P08183); experiment: as above; settings: MDR1-transfected; 2 μM TET, 10 μM metoprolol, 10 μM atenolol, 2 μM digoxin; TAR 5 μM where stated; 2 h, 37 °C
Procedure: as §1, §2

[1] = Bidirectional transport in MOCK LLC-PK1 cells; settings: pig
Procedure: as §1, §2

OATP1B3 = target: T1, OATP1B3 (Homo sapiens, UniProt Q9NPD5); experiment: Uptake by OATP1B3-expressing HEK293 cells; settings: positive control 20 μM, 10 min
T1 sequence (Q9NPD5 1-702): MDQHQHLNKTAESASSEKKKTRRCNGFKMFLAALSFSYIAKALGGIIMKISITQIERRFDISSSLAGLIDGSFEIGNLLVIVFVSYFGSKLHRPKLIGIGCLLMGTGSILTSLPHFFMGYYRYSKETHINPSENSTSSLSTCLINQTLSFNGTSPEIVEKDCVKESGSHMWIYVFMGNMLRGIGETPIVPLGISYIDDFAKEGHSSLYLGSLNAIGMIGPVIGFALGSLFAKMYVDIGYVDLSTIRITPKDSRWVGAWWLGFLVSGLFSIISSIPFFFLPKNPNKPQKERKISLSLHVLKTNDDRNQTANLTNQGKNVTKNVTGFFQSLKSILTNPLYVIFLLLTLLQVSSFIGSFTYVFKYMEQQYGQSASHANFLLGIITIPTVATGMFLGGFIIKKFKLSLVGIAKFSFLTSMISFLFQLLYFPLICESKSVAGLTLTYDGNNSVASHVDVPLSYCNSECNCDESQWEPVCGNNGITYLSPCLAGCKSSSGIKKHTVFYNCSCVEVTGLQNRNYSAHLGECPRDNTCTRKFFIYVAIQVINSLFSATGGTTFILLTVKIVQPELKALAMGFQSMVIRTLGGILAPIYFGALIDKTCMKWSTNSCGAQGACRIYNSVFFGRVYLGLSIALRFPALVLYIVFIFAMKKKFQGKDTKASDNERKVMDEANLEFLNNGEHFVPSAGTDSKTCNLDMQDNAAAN
Procedure: (§3) Expressing OATP1B1/OATP1B3 or MOCK HEK293 cells were utilized to evaluate whether TET is a substrate of these two SLC transporters. Cell culture was performed as mentioned above. Cells were seeded on 96-well plates at the density of 0.8 × 10^5 cells/well. The culture medium was replaced with a medium containing 5 mM sodium butyrate for 24 h before the transport study to enhance the expression of transporters. For the transport assay, the DMEM media were removed and the cells were washed with pre-warmed Krebs–Henseleit buffer twice (0.1 mL/well). The second washing buffer was kept in the wells and the plate was incubated at 37 °C for 5 min before the uptake assay was initiated. […] The incubation solution was removed and the cells were washed with ice-cold transportation buffer three times (0.1 mL/well). A total of 0.1 mL pure water was added to each well to lyse the cells by repeated freezing and thawing (−196 °C–37 °C, three times). The cell lysate was collected and stored at −40 °C for LC-MS/MS analysis and protein measurement.
(§4) In the uptake study of TET by OATP1B1 and OATP1B3 expressing the HEK293 cell line, the uptake clearance (U) of the substrate was calculated according to Equation (5), the transporter-mediated uptake ratio (UR) was calculated by dividing the uptake clearance from transporter-expressing cells to that from the mock cells according to Equation (6), and the inhibition ratio (IR) was calculated according to Equation (7), where p represents the protein content and T is the duration of the incubation time. (5) U=Clysate/p×T (6) UR=U/UMOCK (7) IR=(1−Uwith inhibitor−Umock with inhibitor/Uwithout inhibitor−Umock without inhibitor)×100

HEK293-MOCK cells = experiment: Uptake by MOCK (empty vector) HEK293 cells; settings: positive control 20 μM, 10 min
Procedure: as §3, §4

CYP3a = CYP3a probe substrate turnover in microsomes from normal and LPS-treated mice; assay type: in vitro ADME, mouse; settings: microsomes of LPS-treated vs normal mice, Figure 4A

MDR1 (P-gp), sequence (P08183 whole entry): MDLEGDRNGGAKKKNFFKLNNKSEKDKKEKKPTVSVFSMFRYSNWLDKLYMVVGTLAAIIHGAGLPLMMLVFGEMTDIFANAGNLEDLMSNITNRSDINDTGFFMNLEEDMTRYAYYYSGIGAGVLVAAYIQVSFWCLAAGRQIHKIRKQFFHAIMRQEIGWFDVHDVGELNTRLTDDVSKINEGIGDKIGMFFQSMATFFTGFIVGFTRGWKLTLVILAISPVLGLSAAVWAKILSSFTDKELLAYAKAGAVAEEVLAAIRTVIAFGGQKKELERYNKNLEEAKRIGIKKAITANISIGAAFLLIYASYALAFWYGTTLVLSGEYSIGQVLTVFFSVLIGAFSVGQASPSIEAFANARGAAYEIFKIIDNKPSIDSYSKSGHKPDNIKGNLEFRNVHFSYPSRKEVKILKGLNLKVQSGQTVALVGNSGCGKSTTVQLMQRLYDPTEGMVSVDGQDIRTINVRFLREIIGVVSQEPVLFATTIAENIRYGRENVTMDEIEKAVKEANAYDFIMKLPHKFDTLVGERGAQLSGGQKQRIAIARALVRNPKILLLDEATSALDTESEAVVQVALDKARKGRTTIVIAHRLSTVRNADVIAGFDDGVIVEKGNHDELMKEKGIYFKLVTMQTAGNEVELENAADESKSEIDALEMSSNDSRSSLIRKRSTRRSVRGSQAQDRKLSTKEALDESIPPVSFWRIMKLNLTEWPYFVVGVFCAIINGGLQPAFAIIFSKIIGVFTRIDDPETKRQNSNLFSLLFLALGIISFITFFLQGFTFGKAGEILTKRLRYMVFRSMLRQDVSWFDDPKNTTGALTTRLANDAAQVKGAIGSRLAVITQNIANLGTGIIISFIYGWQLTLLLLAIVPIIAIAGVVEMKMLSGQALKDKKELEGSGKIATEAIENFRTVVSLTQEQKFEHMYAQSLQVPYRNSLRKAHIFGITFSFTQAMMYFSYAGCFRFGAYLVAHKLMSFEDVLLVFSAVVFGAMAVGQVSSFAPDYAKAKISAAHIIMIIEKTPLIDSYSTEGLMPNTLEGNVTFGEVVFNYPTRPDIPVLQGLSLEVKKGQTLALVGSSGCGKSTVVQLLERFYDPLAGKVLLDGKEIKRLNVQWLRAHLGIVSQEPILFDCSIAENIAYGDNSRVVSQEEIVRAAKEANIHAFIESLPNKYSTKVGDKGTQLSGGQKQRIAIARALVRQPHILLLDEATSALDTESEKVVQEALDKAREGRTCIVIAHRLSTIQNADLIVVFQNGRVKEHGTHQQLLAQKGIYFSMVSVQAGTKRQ
MDR1, sequence (P08183 whole entry): as above

C[C@H]1O[C@@H](O[C@H]2[C@@H](O)C[C@H](O[C@H]3[C@@H](O)C[C@H](O[C@H]4CC[C@@]5(C)[C@H](CC[C@@H]6[C@@H]5C[C@@H](O)[C@]5(C)[C@@H](C7=CC(=O)OC7)CC[C@]65O)C4)O[C@@H]3C)O[C@@H]2C)C[C@H](O)[C@@H]1O [Digoxin, digoxin]
efflux ratio at 2 h (MDR1 (P-gp); human, LLC-PK1): 11.5
Papp A-B (MDR1): 0.98 ± 0.11 **^,##
Papp B-A (MDR1): 11.27 ± 0.77 **^,##
Papp A→B at 2 h [1]: 2.25 ± 0.26 ×10⁻⁶ cm/s
Papp B→A at 2 h [1]: 1.74 ± 0.2 ×10⁻⁶ cm/s
efflux ratio at 2 h [1]: 0.77

COCCc1ccc(OCC(O)CNC(C)C)cc1 (centres unmarked) [Metoprolol, metoprolol]
Papp A→B at 2 h (MDR1 (P-gp)): 28.2 ± 0.65 ×10⁻⁶ cm/s
Papp B→A at 2 h (MDR1 (P-gp); human, LLC-PK1): 28.3 ± 2.07 ×10⁻⁶ cm/s
efflux ratio at 2 h (MDR1 (P-gp); human, LLC-PK1): 1
Papp A→B at 2 h [1]: 32.2 ± 2.8 ×10⁻⁶ cm/s
Papp B→A at 2 h [1]: 25 ± 0.3 ×10⁻⁶ cm/s
efflux ratio at 2 h [1]: 0.7

C[C@]12CC[C@@H]3c4ccc(O)cc4CC[C@H]3[C@@H]1CC[C@@H]2O[C@@H]1O[C@H](C(=O)O)[C@@H](O)[C@H](O)[C@H]1O [Positive Control, 17β-estradiol-17β-D-glucuronide]
Uptake Clearance (OATP1B3; OATP1B3+RIF): 3.66 ± 0.03 nM/min/mg Protein
Uptake Clearance (OATP1B3; OATP1B3 cells): 30.0 ± 1.46 **^, ## nM/min/mg Protein
Uptake Clearance (HEK293-MOCK cells; MOCK (OATP1B1 set)): 2.4 ± 0.03 nM/min/mg Protein
Uptake Clearance (HEK293-MOCK cells; MOCK (OATP1B3 set)): 2.7 ± 0.07 nM/min/mg Protein
Uptake Clearance (HEK293-MOCK cells; MOCK+RIF (OATP1B1 set)): 2.63 ± 0.08 nM/min/mg Protein
Uptake Clearance (HEK293-MOCK cells; MOCK+RIF (OATP1B3 set)): 2.73 ± 0.08 nM/min/mg Protein

Cc1ncc2n1-c1ccc(Cl)cc1C(c1ccccc1F)=NC2 [midazolam]
1′-hydroxylation reaction lowered by LPS-induced pneumonia (CYP3a; at 24 h): ~ 2.55 fold

C[C@]12CC[C@H]3[C@@H](CCC4=CC(=O)CC[C@@]43C)[C@@H]1CC[C@@H]2O [testosterone]
change of 6-β-hydroxylation reaction under inflammation state (no obvious alternation) (CYP3a): ~ 1.14 fold
